Experimental data published in patent publication US12638394B2, “Skin sensitization measuring reagent, method for measuring skin sensitization, and compound” (FUJIFILM Corporation, priority 2019, dated 2026).

How the values were obtained:
[1] = class given for the evaluation substance; cited from earlier work
[2] = Depletion of nucleophilic reagent by evaluation substance (HPLC); settings: 1 mmol/L test substance solution, 25° C., 24 hours
Description: (§1) One solvent with which a 1 mmol/L test substance solution can be prepared is selected according to the following order of priority: water, acetonitrile, acetone, and a 5% solution of DMSO in acetonitrile. If water, acetonitrile, or acetone is selected, a 20 mmol/L test substance solution is first prepared. A suitable amount of the test substance is weighed and completely dissolved by adding the solvent to prepare a 20 mmol/L solution. A portion of the 20 mmol/L solution is then collected and diluted 20-fold with the same solvent to prepare a 1 mmol/L test substance solution. If a 5% by mass solution of DMSO in acetonitrile is selected, a 20 mmol/L test substance solution is prepared in the same manner as above. A portion of the solution is then collected and diluted 20-fold with acetonitrile to prepare a 1 mmol/L test substance solution.
(§2) The plate is firmly sealed with a plate seal (resistant embossed seal (TORAST™ 96-well Seal E Type (TORAST is a registered trademark)), Shimadzu GLC Ltd.) and is shaken on a plate shaker (Titramax 100, Heidolph Instruments). After being spun down in a centrifuge, the reaction solutions are incubated at 25° C. in a light-shielded state for 24 hours.
(§3) After incubation for 24 hours, the plate seal is removed, and 50 μL of the reaction stop solution is added to each sample to stop the reaction.
(§4) The depletion of the nucleophilic reagent is calculated from the mean peak area of the nucleophilic reagent by the following equation: […]
(§5) Ten substances shown in the following table were used for reactivity evaluation. For primary evaluation, the upper three substances were used. […] For secondary evaluation, the lower seven substances were used. The substances selected for the secondary evaluation were substances that are difficult to distinguish between sensitizers and non-sensitizers by analysis using NAC and NAL. As above, the substances selected for the secondary evaluation were five substances that mainly react with cysteine and two substances that mainly react with lysine.
Using the three substances shown in the following table, 1 mmol/L solutions were prepared and used for testing.
A solution prepared by dissolving NAC and NAL in a phosphate buffer solution (pH 8.0) prepared in accordance with “(1-2) 100 mmol/L Phosphate Buffer Solution (pH 8.0)” of “(1) Preparation of Various Solutions” above such that the concentration of each nucleophilic reagent was 13.333 μmol/L was used as a nucleophilic reagent stock solution.
Nucleophilic reagent stock solution: NAC and NAL, 75 μL each
(§6) Test substance solution: 50 μL
The procedures described in “(4-2) Reaction” and “(4-3) Reaction Stop” of “(4) Reaction” above were performed.
In addition, the nucleophilic reagent depletion (%) was determined by the method described in “(6) Data Analysis” above.

[3] = Reactivity of nucleophilic reagent, secondary evaluation with seven substances; settings: all six substances except 5-methyl-2,3-hexanedione
Description: as §1
as §2, with “hours. […]” for “hours.”
as §4

[4] = Reactivity of nucleophilic reagent with evaluation substance (depletion, HPLC), primary evaluation; settings: 1 mmol/L test substance solution, 25° C., 24 hours
Description: 1) A nucleophilic reagent is dissolved in DMSO (manufactured by FUJIFILM Wako Pure Chemical Corporation) depending on its molecular weight to prepare a 2 mmol/L nucleophilic reagent solution.
2) To a 500 mL container, 149.5 mL of the buffer solution is added using a 50 mL measuring pipette, and 0.5 mL of the 2 mmol/L nucleophilic reagent solution is added and mixed by inversion so that the solution is diluted 300-fold (6.667 μmol/L). This solution is stored in a freezer at −70° C. or lower.
as §1
Test substance solutions are prepared on a 96-well plate (U96 PP-0.5 ML NATURAL, Thermo (NUNC)), mainly using a 12-channel pipette, and the reagent is added in the following amount:
Nucleophilic reagent: 150 μL
as §6, §2, §3
The HPLC measurement conditions for the nucleophilic reagents are given below. As the elution conditions, condition 1, 2 or 3 was selected depending on the nucleophilic reagent.
as §4, §5

Row | Compound | Skin sensitization [1] | reactivity (nucleophilic reagent depletion) with 2-methyl-2H-isothiazol-3-one [4] | further results
1 | Cn1sccc1=O [2-Methyl-2H-isothiazol-3-one] | Moderate | – | –
2 | CC(=O)N[C@@H](CCCCN)C(=O)N[C@@H](CS)C(=O)NCc1cccc2ccccc12 [Compound 2] | – | – | depletion for 5-methyl-2,3-hexanedione [2]: 16.7%; depletion for diphenylcyclopropenone [2]: 34.9%; depletion for nonanoyl chloride [2]: 65.2%; reactivity with six secondary evaluation substances compared with NAC or NAL [3]: higher than that of NAC or NAL alone and the mean depletion
3 | CC(=O)N[C@@H](CS)C(=O)N[C@@H](CCCCN)C(=O)N[C@@H](CC(=O)O)C(=O)NCc1cccc2ccccc12 [Compound 4] | – | about 100% | depletion for 5-methyl-2,3-hexanedione [2]: 13.8%; depletion for diphenylcyclopropenone [2]: 100%; depletion for nonanoyl chloride [2]: 67.6%; reactivity with six secondary evaluation substances compared with NAC or NAL [3]: higher than that of NAC or NAL alone and the mean depletion
4 | NCCCC[C@H](NC(=O)[C@H](CS)NC(=O)CO)C(=O)N[C@@H](CC(=O)O)C(=O)NCc1cccc2ccccc12 [Compound 13] | – | about 100% | –
5 | NCCCCC(NC(=O)[C@H](CS)NC(=O)[C@H](Cc1ccccn1)NC(=O)Cc1ccc2ccccc2c1)C(N)=O (some centres unmarked) [Compound 16] | – | about 100% | –
6 | NCCCCC(NC(=O)[C@H](CS)NC(=O)[C@H](Cc1c[nH]cn1)NC(=O)Cc1ccc2ccccc2c1)C(N)=O (some centres unmarked) [Compound 19] | – | about 100% | –
7 | NCCCCC(NC(=O)[C@H](CS)NC(=O)[C@H](Cc1ccccn1)NC(=O)Cc1ccc2ccccc2c1)C(=O)O (some centres unmarked) [Compound 21] | – | about 100% | –
8 | NCCCCC(NC(=O)[C@H](CS)NC(=O)C(Cc1ccncc1)NC(=O)Cc1ccc2ccccc2c1)C(=O)O (some centres unmarked) [Compound 22] | – | about 100% | –
9 | NCCCCC(NC(=O)[C@H](CS)NC(=O)C(Cc1c[nH]cn1)NC(=O)Cc1ccc2ccccc2c1)C(=O)O (some centres unmarked) [Compound 24] | – | about 100% | –
10 | NCCCC[C@H](NC(=O)C(Cc1ccncc1)NC(=O)Cc1ccc2ccccc2c1)C(=O)NC(CS)C(=O)O (some centres unmarked) [Compound 27] | – | about 100% | –
11 | NCCCC[C@H](NC(=O)C(Cc1c[nH]cn1)NC(=O)Cc1ccc2ccccc2c1)C(=O)NC(CS)C(=O)O (some centres unmarked) [Compound 29] | – | about 100% | –
12 | NCCCCC(NC(=O)Cc1ccc2ccccc2c1)C(=O)N[C@@H](CS)C(=O)O (some centres unmarked) [Compound 30] | – | about 100% | –
13 | CC(C=O)Cc1ccc(C(C)C)cc1 (centres unmarked) [Cyclamen aldehyde] | Strong sensitizer | – | –
14 | O=c1c(-c2ccccc2)c1-c1ccccc1 [Diphenylcyclopropenone] | Strong sensitizer | – | –
15 | C=C(C)C(=O)OCCOC(=O)C(=C)C [Ethylene glycol dimethacrylate] | Strong sensitizer | – | –
16 | CC(CC=O)CCCC(C)(C)O (centres unmarked) [Hydroxycitronellal] | Strong sensitizer | – | –
17 | CCCCCCCCC(=O)Cl [Nonanoyl chloride] | Moderate | – | –
18 | O=C(O)c1ccccc1O [Salicylic acid] | Non-sensitizer | – | –
19 | O=C(O)c1ccc2c(c1)C(=O)OC2=O [Trimellitic anhydride] | Strong sensitizer | – | –
